Marks after values point to notes of the source that are not given here.
Tests used:
[1] = tested on: Wistar rat bone marrow cells; experiment: Chromosome aberration in vivo assay in rat bone marrow
From the text: Male albino Wistar rats aged 8–10 weeks and having body weight of 200–220 g, were used in the present study. The animals were supplied by the Animal Facility of the Department of Immunology, State Research Institute Center for Innovative Medicine. Ethical approval was given by the Committee of the Lithuanian Animal Care and Use. Prior to the start of the study, the animals were acclimatized for 7 days. They were housed under conditions of constant temperature, humidity and a light/dark cycle of 12 h/12 h with free access to standard commercial pellet diet and drinking water. The animals were randomly distributed into 11 experimental groups of six rats each.
We used a mixture of dimethylsulfoxide (DMSO) and sunflower oil (1:2) as the vehicle for 5,8-DHC (5,8-DHC was dissolved in DMSO and adjusted to the desired dose with sunflower oil immediately before administration). For the acute treatment, the animals received single intraperitoneal (i.p.) injections of 10 or 20 mg/kg of 5,8-DHC in 1 mL volume per 100 g body weight (b.w.). The negative control group comprised animals, given a single i.p. injection of vehicle (1 mL/100 g b.w.) and the positive control group, given cyclophosphamide (CP, 30 mg/kg adjusted in 0.5 mL/100 g b.w. in sterile physiological saline). A commercial form of cyclophosphamide was used (‘Endoxan’, ASTA Medica AG, Frankfurt, Germany). Blank controls comprised untreated animals. For the repeated treatment, 5,8-DHC (10 or 20 mg/kg) or vehicle was administered via gavage (1 mL/100 g b.w.) once a day for 3 consecutive days. Animals were sacrificed 24 h or 48 h after the last dose administration. Colchicine was applied i.p. at a dose of 2 mg/kg b.w. in 1 mL volume 90 min before sacrifice. Both femurs were dissected from each animal and used to obtain bone marrow preparations for the analysis of chromosome aberrations and micronucleus.
Bone marrow cells were flushed from the femora with 0.55% potassium chloride hypotonic solution, incubated for 25 min at 37 °C and then centrifuged at 150 × g for 8 min. Cells were fixed in methanol-glacial acetic acid (3:1). Slides were prepared by a flame-drying procedure and then stained with 5% Giemsa stain. Slides were coded and scored blind by the single scorer at a magnification of 1500× (Nikon ECLIPSE E200, Tokyo, Japan). Only well-spread metaphases with 42 ± 1 chromosomes were used for the analysis. The frequencies of CAs were estimated in 100 metaphases per animal. Aberrations were recorded as individual types according to J.R. Savage’s classification but for convenience were grouped as chromatid breaks (ctb), chromatid exchanges (cte), chromosome breaks (csb) and chromosome exchanges (cse). Gaps were counted but not included into statistical analysis.

[2] = tested on: Drosophila melanogaster wing cells; experiment: Somatic mutation and recombination test (SMART), wing spot test; type: in vivo
Method: The basic procedures for the D. melanogaster somatic mutation and recombination test (SMART) were performed according to Graf and co-workers. Two D. melanogaster strains (kindly provided by Dr. H. Frei, Zurich, Switzerland) were used in the present study: virgin females from the strain ORR/ORR; flr^3/ In (3LR) TM3, ri p^p sep l(3)89Aa bx^34e e Bd^S were mated with mwh/mwh males. The ORR strain has chromosomes 1 and 2 from a DDT-resistant Oregon line, which are characterized by constitutively over-expressed CYP450 genes. The CYP 450 enzymes play the main role in the bioactivation of xenobiotics, as well as natural products including phytochemicals. Thus, the use of this high-bioactivation strain of D. melanogaster facilitates the detection of promutagens of numerous classes of compounds. The markers mwh (multiple wing hairs) and flr^3 (misshapen, flare-like hairs) are recessive wing-hair mutations located on the third chromosome at 0.3 and 38.8 respectively.
Eggs from the crosses were collected over 10 h periods. Progeny were raised on the Instant Drosophila Medium (Sigma Chemical Co., St. Louis, MO, USA) at 25 °C. Two schedules of the larvae treatment were applied. Firstly, the crossed flies were permitted to lay eggs for 10 h in vials containing medium prepared with 5,8-DHC solution. Thus, the exposure duration was about 120 h (i.e., evolutionary period from fly egg till case-worm). According to the second schedule, the 72 ± 5 h-old larvae were exposed to 5,8-DHC by adding test solution to the surface of the medium and were fed on this medium for the rest of their development, during approximately 48 h. 5,8-DHC was dissolved in ethanol and then diluted with distilled water to the desired concentration, with the final ethanol concentration 5% v/v. The solutions were always prepared immediately before use. Solvent controls were included in all treatments. Methyl methanesulfonate was included in the assay as a positive control. Trans-heterozygous (mwh flr^+ / mwh^+ flr^3) flies were collected and stored in a 70% ethanol. The wings of adult flies were mounted on glass slides in Faure’s solution, coded and scored at 400× magnification (Nikon E200) for the presence of single (mwh or flr^3 phenotype) or twin (adjacent mwh and flr^3 clones) spots. The spots were recorded according to standard procedures. No less than 40 wings were analysed per each experimental point. Two repeated experiments were carried out.

[3] = test solution 0.1%, exposure duration 48 h
[4] = test solution 0.1%, exposure duration 120 h
[5] = test solution 0.25%, exposure duration 48 h
[6] = test solution 0.25%, exposure duration 120 h
[7] = test solution 0.5%, exposure duration 48 h
[8] = test solution 0.5%, exposure duration 120 h

O=c1ccc2c(O)ccc(O)c2o1 [5,8-DHC, 5,8-Dihydroxycoumarin]
increase of CAs compared with vehicle controls ([1]; all 5,8-DHC treated animals): No increase of CAs | Aberrant metaphases (%± S.E.M.) ([1]; repeated gavage 3 × 10 mg/kg b.w., sacrifice 48 h): 1.17 ± 0.17% | Aberrant metaphases (%± S.E.M.) ([1]; repeated gavage 3 × 20 mg/kg b.w., sacrifice 48 h): 2.43 ± 0.37% | Aberrant metaphases (%± S.E.M.) ([1]; single i.p. 10 mg/kg b.w., sacrifice 24 h): 2.33 ± 0.49% | Aberrant metaphases (%± S.E.M.) ([1]; single i.p. 10 mg/kg b.w., sacrifice 48 h): 1.67 ± 0.56% | Aberrant metaphases (%± S.E.M.) ([1]; single i.p. 20 mg/kg b.w., sacrifice 24 h): 1.00 ± 0.36% | Aberrant metaphases (%± S.E.M.) ([1]; single i.p. 20 mg/kg b.w., sacrifice 48 h): 2.60 ± 0.68% | large single spots ([2]; 0.5% 5,8-DHC, 120 h of treatment): 0.10 spots per wing | increase in the number of somatic mutations ([2]; 48 h treatment): no statistically significant increase | genotoxicity in SMART ([2]; 120 h treatment): slight genotoxicity | frequency of twin spots ([2]; range over concentrations): 0–0.04 spots per wing | Spots/wing (±S.E.M.) [2, 3]: 0.27 ± 0.04 spots/wing | Wings with spots (% ± S.E.M.) [2, 3]: 26.8 ± 4.5% | Spots/wing (±S.E.M.) [2, 4]: 0.25 ± 0.04 ^a spots/wing | Wings with spots (% ± S.E.M.) [2, 4]: 22.4 ± 4.2% | Spots/wing (±S.E.M.) [2, 5]: 0.22 ± 0.04 spots/wing | Wings with spots (% ± S.E.M.) [2, 5]: 21.1 ± 4.3% | Spots/wing (±S.E.M.) [2, 6]: 0.30 ± 0.04 ^a spots/wing | Wings with spots (% ± S.E.M.) [2, 6]: 27.1 ± 4.5^a % | Spots/wing (±S.E.M.) [2, 7]: 0.27 ± 0.04 spots/wing | Wings with spots (% ± S.E.M.) [2, 7]: 25.0 ± 4.4% | Spots/wing (±S.E.M.) [2, 8]: 0.32 ± 0.04 ^a spots/wing | Wings with spots (% ± S.E.M.) [2, 8]: 28.9 ± 4.6^a %

— publication PMC6269819, “Evaluation of the Biological Activity of Naturally Occurring 5,8-Dihydroxycoumarin” (Molecules, 2013)
